# Measurements as given in patent US11557737B2, “Compound, coating composition comprising same, organic light-emitting element using same, and manufacturing method therefor” (LG Chem, Ltd., priority 2018, dated 2023).
# Assay: Solubility measurement (compound dissolved in solvent, left 1 day, precipitate checked by Tyndall effect)
# Format: physicochemical
# Conditions: dissolved in a solvent, left to stand for 1 day, laser / Tyndall effect
# Description: In the present specification, the “solubility” means a property in which a solute is dissolved in a specific solvent, and may be denoted as a g value of the solute that may be dissolved in 100 g of the solvent at a predetermined temperature.
# The method of measuring the solubility is as follows. First, after a compound was dissolved in a solvent, the resulting solution was left to stand for 1 day. Thereafter, by passing a laser through the solution, it was observed whether a precipitate was formed through the Tyndall effect, and the solubility was measured.
row,SMILES,Solubility [wt %]
1,c1ccc([Si](c2ccccc2)(c2ccccc2)c2ccc(-c3ccc(N(c4ccc(-c5ccc6c(c5)oc5ccccc56)cc4)c4cc5ccc6cccc7ccc(c4)c5c67)cc3)cc2)cc1 [Compound F],2
2,c1ccc([Si](c2ccccc2)(c2ccccc2)c2ccc(-c3ccc(N(c4ccc(-c5cccc6c5oc5ccccc56)cc4)c4cc5ccc6cccc7ccc(c4)c5c67)cc3)cc2)cc1 [Compound E],2
3,C[Si](C)(C)c1ccc(N(c2ccccc2)c2ccc3ccc4c(N(c5ccccc5)c5ccc([Si](C)(C)C)cc5)ccc5ccc2c3c54)cc1 [Compound C],0.1
4,C[Si](C)(C)c1ccc(-c2ccc(N(c3ccc4ccc5c(N(c6ccc(-c7ccc([Si](C)(C)C)cc7)cc6)c6cccc7c6oc6ccccc67)ccc6ccc3c4c65)c3cccc4c3oc3ccccc34)cc2)cc1 [Compound D],0.05
